Experimental data as given in US11066368B2, “Process for the preparation and particle size reduction of pirfenidone” (Laurus Labs Limited, priority 2016, dated 2021).

Legend:
[1] = Dust explosion test by Modified Hartmann Apparatus; assay type: physicochemical; set-up: key to Dust explosion class (overall): St0H: No fire or explosion; St1H: Dust fire or mild explosion; St2H: Violent explosion; conditions: for Dust explosion Class: sieved through 63μ
Description: This test was performed based on procedures from VDI 2263, Part 1 (Section 2.1.1), “Dust fires and dust explosions; hazards, assessment, protective measures”, using a Modified Hartmann Apparatus. Pirfenidone was dried at 50° C. under vacuum, sieved through 63μ sieve. Weighed amount of product was charged into a modified hartmann tube of 1.2 liter volume. The product was converted into a dust cloud in glass cylindrical tube with compressed air and electrodes with continuous spark was used as ignition source to ignite the dust cloud. Based on dust fire or extent of opening of the hinged cover rating 0, 1 or 2 are assigned.

[2] = Particle size distribution of unmilled input pirfenidone; assay type: physicochemical; conditions: input material before wet milling (Reference Example 5)
Description: As used herein, the term “particle size distribution” is expressed in terms of D90, D50 and D10, which corresponds to the diameter of 90 percent by volume of the particles, 50 percent by volume of the particles and 10 percent by volume of the particles are present, respectively.
The particle size distribution of pirfenidone is measured utilizing: Instrument model: Malvern; Mastersizer 3000; particle refraction index of sample: 1.700; Absorption: 0.01 and Analysis model: general purpose, normal sensitivity, non-spherical particles.
Dissolving crude Pirfenidone (50 g) in ethyl acetate (100 mL) at 65-75° C. and the reaction mass was treated with activated carbon (5 g) and filtered through a short bed of Hyflo. The filtrate was partially concentrated, under reduced pressure while maintain temperature below 60° C. The mixture was gradually allowed to cool to 30±5° C. and then stirred for another 30-60 min. The suspension was again allowed to cool to 0-5° C. and maintained for another 2-3 h, at the same temperature. The precipitated material was filtered and then dried at 60±5° C., for 6-8 h, to afford Pirfenidone as white colored powder (HPLC purity 99.9%; dimer content 0.03%). Yield: 45 g.

Dust explosion Class ([1]; Wt. of sample 120 mg, eq. dust concentration 100 g/m3): 1
Dust explosion Class ([1]; Wt. of sample 240 mg, eq. dust concentration 200 g/m3): 2
Particle size distribution D10 [2]: 1330 μm
Particle size distribution D50 [2]: 1950 μm
Particle size distribution D90 [2]: 2840 μm
SMILES: Cc1ccc(=O)n(-c2ccccc2)c1 [Pirfenidone, 5-methyl-1-phenyl-2-1(H)-pyridone]
Dust explosion class (overall) ([1]; summary of safety studies): St2H
